Test system: not listed separately
Assay: Tmax in CD rat at 10 mg/kg, po by LC-MS/MS analysis
Format: ADME, organism-based
Conditions: in vivo

`COc1cc(N2CCC(N3CCOCC3)CC2)ccc1Nc1ncc(Cl)c(Nc2ccccc2P(C)(C)=O)n1` showed a Tmax of 2 h.

Test system: not listed separately
Assay: cells
Conditions: Homo sapiens, KARPAS-299, 72 h
Description: Antiproliferative activity against human ALK-positive KARPAS299 cells assessed as reduction in cell viability measured after 72 hrs by CellTiter 96 aqueous one solution cell proliferation assay

In order of rising IC50:
1. COc1cc(N2CCC(N(C)C)CC2)ccc1Nc1ncc(Cl)c(Nc2ccccc2P(C)(C)=O)n1  41.5 nM
2. COc1cc(N2CCCN(C)CC2)ccc1Nc1ncc(Cl)c(Nc2ccccc2P(C)(C)=O)n1  53.9 nM
3. COc1cc(N2CCC(N3CCOCC3)CC2)ccc1Nc1ncc(Cl)c(Nc2ccccc2P(C)(C)=O)n1  61 nM
4. COc1cc(N2CCOCC2)ccc1Nc1ncc(Cl)c(Nc2ccccc2P(C)(C)=O)n1  77.4 nM
5. COc1cc(P(C)(C)=O)ccc1Nc1ncc(Cl)c(Nc2ccccc2OC)n1  278 nM
6. COc1cc(-c2cnn(C3CCNCC3)c2)ccc1Nc1ncc(Cl)c(Nc2ccccc2P(C)(C)=O)n1  322 nM

Biological target: Insulin-like growth factor 1 receptor (Homo sapiens, UniProt P08069)
Assay: not given
Conditions: not given

In order of falling IC50:
1. COc1cc(-c2cnn(C3CCNCC3)c2)ccc1Nc1ncc(Cl)c(Nc2ccccc2P(C)(C)=O)n1  98.1 nM
2. COc1cc(N2CCCN(C)CC2)ccc1Nc1ncc(Cl)c(Nc2ccccc2P(C)(C)=O)n1  77.5 nM
3. COc1cc(N2CCOCC2)ccc1Nc1ncc(Cl)c(Nc2ccccc2P(C)(C)=O)n1  51.4 nM
4. COc1cc(N2CCC(N3CCOCC3)CC2)ccc1Nc1ncc(Cl)c(Nc2ccccc2P(C)(C)=O)n1  47.3 nM
5. COc1cc(P(C)(C)=O)ccc1Nc1ncc(Cl)c(Nc2ccccc2OC)n1  22.1 nM
6. COc1cc(N2CCC(N(C)C)CC2)ccc1Nc1ncc(Cl)c(Nc2ccccc2P(C)(C)=O)n1  3.2 nM

Biological target: T1, ALK tyrosine kinase receptor (Homo sapiens, UniProt Q9UM73)
Assay: Inhibition of ALK phosphorylation in mouse xenografted with human KARPAS299 cells assessed as p-ALK level at 25 mg/kg, po administered as single dose measured after 16 hrs relative to 2 hrs vehicle-treated tumor
Format: organism-based
Design: scale not given: the % may be the effect or the level left
Conditions: KARPAS-299
Target sequence in this assay (Q9UM73 19-1620 limits assumed): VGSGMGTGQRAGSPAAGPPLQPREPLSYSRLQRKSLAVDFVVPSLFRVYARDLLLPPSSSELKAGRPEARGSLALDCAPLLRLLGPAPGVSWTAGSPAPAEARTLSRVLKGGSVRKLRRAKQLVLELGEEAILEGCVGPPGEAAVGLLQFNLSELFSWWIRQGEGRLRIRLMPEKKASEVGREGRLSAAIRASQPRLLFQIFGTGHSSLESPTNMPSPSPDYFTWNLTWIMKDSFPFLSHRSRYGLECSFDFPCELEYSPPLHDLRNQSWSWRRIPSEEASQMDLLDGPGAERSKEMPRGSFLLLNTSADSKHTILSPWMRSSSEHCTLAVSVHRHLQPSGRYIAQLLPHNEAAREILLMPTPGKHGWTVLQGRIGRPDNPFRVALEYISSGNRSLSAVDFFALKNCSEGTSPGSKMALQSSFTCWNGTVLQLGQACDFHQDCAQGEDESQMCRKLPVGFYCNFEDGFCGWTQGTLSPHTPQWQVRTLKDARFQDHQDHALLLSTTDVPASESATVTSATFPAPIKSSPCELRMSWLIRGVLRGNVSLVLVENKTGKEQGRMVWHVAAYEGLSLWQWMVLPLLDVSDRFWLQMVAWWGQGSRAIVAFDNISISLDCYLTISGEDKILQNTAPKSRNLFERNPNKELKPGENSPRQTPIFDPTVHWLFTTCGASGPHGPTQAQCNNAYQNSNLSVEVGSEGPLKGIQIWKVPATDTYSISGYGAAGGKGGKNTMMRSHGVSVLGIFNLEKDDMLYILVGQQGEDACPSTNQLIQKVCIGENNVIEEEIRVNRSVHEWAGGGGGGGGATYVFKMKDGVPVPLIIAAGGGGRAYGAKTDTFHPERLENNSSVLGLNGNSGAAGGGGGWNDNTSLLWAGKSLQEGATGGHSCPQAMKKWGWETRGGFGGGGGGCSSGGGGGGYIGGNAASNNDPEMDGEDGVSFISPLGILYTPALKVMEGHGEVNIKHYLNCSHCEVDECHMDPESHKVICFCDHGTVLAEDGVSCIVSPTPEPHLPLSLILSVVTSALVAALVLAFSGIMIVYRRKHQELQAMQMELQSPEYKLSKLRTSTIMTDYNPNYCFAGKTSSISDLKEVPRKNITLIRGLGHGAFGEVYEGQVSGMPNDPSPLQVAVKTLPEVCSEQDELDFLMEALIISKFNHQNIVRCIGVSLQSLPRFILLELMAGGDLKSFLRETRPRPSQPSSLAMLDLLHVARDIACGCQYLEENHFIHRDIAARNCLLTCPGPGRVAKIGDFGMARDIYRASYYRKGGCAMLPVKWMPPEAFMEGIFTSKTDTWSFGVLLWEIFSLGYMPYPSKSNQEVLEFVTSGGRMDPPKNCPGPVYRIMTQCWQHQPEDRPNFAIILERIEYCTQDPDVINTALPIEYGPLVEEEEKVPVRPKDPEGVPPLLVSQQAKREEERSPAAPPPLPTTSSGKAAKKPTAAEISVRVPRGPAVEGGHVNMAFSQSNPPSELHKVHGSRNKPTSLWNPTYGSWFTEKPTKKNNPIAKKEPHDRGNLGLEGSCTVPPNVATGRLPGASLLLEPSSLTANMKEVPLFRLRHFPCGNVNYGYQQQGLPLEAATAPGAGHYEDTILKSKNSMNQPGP

`COc1cc(N2CCC(N3CCOCC3)CC2)ccc1Nc1ncc(Cl)c(Nc2ccccc2P(C)(C)=O)n1` gave an Activity of 52%.

Biological target: T1, ALK tyrosine kinase receptor
Assay: Inhibition of ALK phosphorylation in mouse xenografted with human KARPAS299 cells assessed as p-ALK level at 25 mg/kg, po administered as single dose measured after 24 hrs relative to 2 hrs vehicle-treated tumor
Format: organism-based
Design: scale not given: the % may be the effect or the level left
Conditions: KARPAS-299
Target sequence in this assay (Q9UM73 19-1620 limits assumed): as above

`COc1cc(N2CCC(N3CCOCC3)CC2)ccc1Nc1ncc(Cl)c(Nc2ccccc2P(C)(C)=O)n1` gave an Activity of 50%.

Test system: not listed separately
Assay: Cmax in CD rat at 10 mg/kg, po by LC-MS/MS analysis
Format: ADME, organism-based
Design: dose 10 mg/kg, route oral
Conditions: in vivo

Work on `COc1cc(N2CCC(N3CCOCC3)CC2)ccc1Nc1ncc(Cl)c(Nc2ccccc2P(C)(C)=O)n1` yielded a Cmax of 2.84 µg/mL.

Test system: not listed separately
Assay: Volume of distribution at steady state in CD rat at 3 mg/kg, iv by LC-MS/MS analysis
Format: ADME, organism-based
Conditions: CD, in vivo, read-out: Vdss

With `COc1cc(N2CCC(N3CCOCC3)CC2)ccc1Nc1ncc(Cl)c(Nc2ccccc2P(C)(C)=O)n1` the Vd was 0.78 L/kg.

Test system: not listed separately
Assay: Clearance in CD rat at 3 mg/kg, iv by LC-MS/MS analysis
Format: ADME, organism-based
Conditions: in vivo

In the case of `COc1cc(N2CCC(N3CCOCC3)CC2)ccc1Nc1ncc(Cl)c(Nc2ccccc2P(C)(C)=O)n1`, the clearance is reported as 0.17 L/h/kg.

Test system: not listed separately
Assay: Half life in CD rat at 10 mg/kg, po by LC-MS/MS analysis
Format: ADME, organism-based
Conditions: in vivo

For `COc1cc(N2CCC(N3CCOCC3)CC2)ccc1Nc1ncc(Cl)c(Nc2ccccc2P(C)(C)=O)n1`, the half-life was 6.8 h.

Test system: not listed separately
Assay: AUC (0 to infinity) in CD rat at 10 mg/kg, po by LC-MS/MS analysis
Format: ADME, organism-based
Design: dose 10 mg/kg, route oral, time infinity
Conditions: in vivo

With `COc1cc(N2CCC(N3CCOCC3)CC2)ccc1Nc1ncc(Cl)c(Nc2ccccc2P(C)(C)=O)n1` the AUC(0-inf) was 43.6 µg·h/mL.

Biological target: T1, ALK tyrosine kinase receptor
Assay: Inhibition of ALK phosphorylation in mouse xenografted with human KARPAS299 cells assessed as p-ALK level at 25 mg/kg, po administered as single dose measured after 10 hrs relative to 2 hrs vehicle-treated tumor
Format: organism-based
Design: scale not given: the % may be the effect or the level left
Conditions: KARPAS-299
Target sequence in this assay (Q9UM73 19-1620 limits assumed): as above

For `COc1cc(N2CCC(N3CCOCC3)CC2)ccc1Nc1ncc(Cl)c(Nc2ccccc2P(C)(C)=O)n1`, the Activity was 15%.

Test system: not listed separately
Assay: cells
Conditions: Homo sapiens, U-937, 72 h
Description: Antiproliferative activity against human ALK-negative U937 cells assessed as reduction in cell viability measured after 72 hrs by CellTiter 96 aqueous one solution cell proliferation assay

In order of falling IC50:
1. COc1cc(-c2cnn(C3CCNCC3)c2)ccc1Nc1ncc(Cl)c(Nc2ccccc2P(C)(C)=O)n1  6230 nM
2. COc1cc(N2CCOCC2)ccc1Nc1ncc(Cl)c(Nc2ccccc2P(C)(C)=O)n1  5990 nM
3. COc1cc(N2CCC(N3CCOCC3)CC2)ccc1Nc1ncc(Cl)c(Nc2ccccc2P(C)(C)=O)n1  5680 nM
4. COc1cc(N2CCCN(C)CC2)ccc1Nc1ncc(Cl)c(Nc2ccccc2P(C)(C)=O)n1  2970 nM
5. COc1cc(P(C)(C)=O)ccc1Nc1ncc(Cl)c(Nc2ccccc2OC)n1  2910 nM
6. COc1cc(N2CCC(N(C)C)CC2)ccc1Nc1ncc(Cl)c(Nc2ccccc2P(C)(C)=O)n1  1720 nM

Test system: not listed separately
Assay: Half life in CD rat at 3 mg/kg, iv by LC-MS/MS analysis
Format: ADME, organism-based
Conditions: CD, in vivo

Work on `COc1cc(N2CCC(N3CCOCC3)CC2)ccc1Nc1ncc(Cl)c(Nc2ccccc2P(C)(C)=O)n1` yielded a half-life of 3.9 h.

Test system: not listed separately
Assay: AUC (0 to infinity) in CD rat at 3 mg/kg, iv by LC-MS/MS analysis
Format: ADME, organism-based
Design: dose 3 mg/kg, time infinity, route intravenous
Conditions: CD, in vivo

In the case of `COc1cc(N2CCC(N3CCOCC3)CC2)ccc1Nc1ncc(Cl)c(Nc2ccccc2P(C)(C)=O)n1`, the AUC(0-inf) is reported as 17.9 µg·h/mL.

Biological target: T1, ALK tyrosine kinase receptor
Assay: not given
Conditions: not given
Target sequence in this assay (Q9UM73 whole entry): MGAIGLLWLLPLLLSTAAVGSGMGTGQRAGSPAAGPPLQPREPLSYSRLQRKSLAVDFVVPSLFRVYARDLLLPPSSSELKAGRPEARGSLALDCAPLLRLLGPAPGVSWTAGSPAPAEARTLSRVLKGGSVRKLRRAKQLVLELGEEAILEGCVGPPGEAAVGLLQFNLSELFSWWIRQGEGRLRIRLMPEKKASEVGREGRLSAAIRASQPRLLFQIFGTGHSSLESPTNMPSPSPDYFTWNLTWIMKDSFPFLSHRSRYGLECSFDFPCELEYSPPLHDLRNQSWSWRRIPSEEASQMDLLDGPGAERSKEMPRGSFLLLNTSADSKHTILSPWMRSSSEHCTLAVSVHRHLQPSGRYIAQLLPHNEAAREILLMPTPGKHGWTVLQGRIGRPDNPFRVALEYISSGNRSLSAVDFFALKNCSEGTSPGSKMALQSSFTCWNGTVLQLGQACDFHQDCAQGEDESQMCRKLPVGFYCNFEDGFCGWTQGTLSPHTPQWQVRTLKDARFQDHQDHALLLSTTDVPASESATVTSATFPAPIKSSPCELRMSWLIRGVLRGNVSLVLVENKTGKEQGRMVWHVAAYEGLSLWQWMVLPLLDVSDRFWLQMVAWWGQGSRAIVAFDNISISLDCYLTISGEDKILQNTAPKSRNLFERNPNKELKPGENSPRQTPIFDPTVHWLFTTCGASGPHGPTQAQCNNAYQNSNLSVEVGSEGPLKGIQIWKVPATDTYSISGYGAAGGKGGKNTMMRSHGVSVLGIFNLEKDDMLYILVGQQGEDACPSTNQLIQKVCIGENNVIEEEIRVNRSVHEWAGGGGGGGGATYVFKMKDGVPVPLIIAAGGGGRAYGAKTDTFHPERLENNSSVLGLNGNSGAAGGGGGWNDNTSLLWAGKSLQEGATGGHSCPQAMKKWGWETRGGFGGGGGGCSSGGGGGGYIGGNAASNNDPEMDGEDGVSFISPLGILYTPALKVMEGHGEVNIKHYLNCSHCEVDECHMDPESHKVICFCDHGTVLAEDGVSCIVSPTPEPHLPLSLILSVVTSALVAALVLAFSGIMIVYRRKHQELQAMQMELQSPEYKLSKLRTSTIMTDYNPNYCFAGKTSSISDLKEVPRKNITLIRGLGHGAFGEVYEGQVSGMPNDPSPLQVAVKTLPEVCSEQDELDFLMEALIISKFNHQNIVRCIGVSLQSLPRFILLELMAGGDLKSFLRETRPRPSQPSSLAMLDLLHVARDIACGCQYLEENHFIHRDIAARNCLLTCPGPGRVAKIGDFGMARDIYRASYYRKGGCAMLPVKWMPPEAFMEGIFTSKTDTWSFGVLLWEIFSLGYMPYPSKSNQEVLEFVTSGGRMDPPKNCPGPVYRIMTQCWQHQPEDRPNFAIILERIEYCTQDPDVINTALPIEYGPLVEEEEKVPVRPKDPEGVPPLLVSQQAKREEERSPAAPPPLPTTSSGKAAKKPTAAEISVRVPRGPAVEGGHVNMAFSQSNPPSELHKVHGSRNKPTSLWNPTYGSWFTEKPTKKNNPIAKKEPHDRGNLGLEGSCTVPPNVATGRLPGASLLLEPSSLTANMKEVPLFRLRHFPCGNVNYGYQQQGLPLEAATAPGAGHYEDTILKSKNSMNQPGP

In order of rising IC50:
1. COc1cc(N2CCC(N(C)C)CC2)ccc1Nc1ncc(Cl)c(Nc2ccccc2P(C)(C)=O)n1  0.07 nM
2. COc1cc(N2CCOCC2)ccc1Nc1ncc(Cl)c(Nc2ccccc2P(C)(C)=O)n1  0.24 nM
3. COc1cc(N2CCC(N3CCOCC3)CC2)ccc1Nc1ncc(Cl)c(Nc2ccccc2P(C)(C)=O)n1  0.49 nM
4. COc1cc(N2CCCN(C)CC2)ccc1Nc1ncc(Cl)c(Nc2ccccc2P(C)(C)=O)n1  0.72 nM
5. COc1cc(-c2cnn(C3CCNCC3)c2)ccc1Nc1ncc(Cl)c(Nc2ccccc2P(C)(C)=O)n1  0.76 nM
6. COc1cc(P(C)(C)=O)ccc1Nc1ncc(Cl)c(Nc2ccccc2OC)n1  0.96 nM

Test system: not listed separately
Assay: Oral bioavailability in CD rat at 10 mg/kg by LC-MS/MS analysis
Format: ADME, organism-based
Conditions: in vivo

For `COc1cc(N2CCC(N3CCOCC3)CC2)ccc1Nc1ncc(Cl)c(Nc2ccccc2P(C)(C)=O)n1`, the bioavailability was 73%.

Biological target: Insulin receptor (Homo sapiens, UniProt P06213)
Assay: not given
Conditions: not given

Chain of Insulin receptor (P06213 28-758 limits assumed): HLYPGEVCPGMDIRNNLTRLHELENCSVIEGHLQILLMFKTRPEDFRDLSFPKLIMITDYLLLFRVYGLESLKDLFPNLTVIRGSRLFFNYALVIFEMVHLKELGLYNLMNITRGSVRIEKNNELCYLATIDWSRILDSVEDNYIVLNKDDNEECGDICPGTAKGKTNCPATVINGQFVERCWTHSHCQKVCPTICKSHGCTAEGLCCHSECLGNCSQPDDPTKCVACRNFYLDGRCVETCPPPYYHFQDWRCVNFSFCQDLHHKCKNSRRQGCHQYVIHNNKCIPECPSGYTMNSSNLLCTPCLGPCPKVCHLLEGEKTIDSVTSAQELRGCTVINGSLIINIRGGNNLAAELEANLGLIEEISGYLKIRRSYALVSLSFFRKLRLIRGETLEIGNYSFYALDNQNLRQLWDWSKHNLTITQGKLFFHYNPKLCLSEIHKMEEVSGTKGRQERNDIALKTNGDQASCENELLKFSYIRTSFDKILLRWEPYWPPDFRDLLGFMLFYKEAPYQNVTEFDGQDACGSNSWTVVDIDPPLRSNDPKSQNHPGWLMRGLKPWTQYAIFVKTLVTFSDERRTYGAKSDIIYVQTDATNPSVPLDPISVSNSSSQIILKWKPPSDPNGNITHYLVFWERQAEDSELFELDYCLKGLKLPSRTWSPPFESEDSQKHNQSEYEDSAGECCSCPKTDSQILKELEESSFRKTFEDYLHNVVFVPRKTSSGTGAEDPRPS
Chain of Insulin receptor (P06213 763-1382 limits assumed): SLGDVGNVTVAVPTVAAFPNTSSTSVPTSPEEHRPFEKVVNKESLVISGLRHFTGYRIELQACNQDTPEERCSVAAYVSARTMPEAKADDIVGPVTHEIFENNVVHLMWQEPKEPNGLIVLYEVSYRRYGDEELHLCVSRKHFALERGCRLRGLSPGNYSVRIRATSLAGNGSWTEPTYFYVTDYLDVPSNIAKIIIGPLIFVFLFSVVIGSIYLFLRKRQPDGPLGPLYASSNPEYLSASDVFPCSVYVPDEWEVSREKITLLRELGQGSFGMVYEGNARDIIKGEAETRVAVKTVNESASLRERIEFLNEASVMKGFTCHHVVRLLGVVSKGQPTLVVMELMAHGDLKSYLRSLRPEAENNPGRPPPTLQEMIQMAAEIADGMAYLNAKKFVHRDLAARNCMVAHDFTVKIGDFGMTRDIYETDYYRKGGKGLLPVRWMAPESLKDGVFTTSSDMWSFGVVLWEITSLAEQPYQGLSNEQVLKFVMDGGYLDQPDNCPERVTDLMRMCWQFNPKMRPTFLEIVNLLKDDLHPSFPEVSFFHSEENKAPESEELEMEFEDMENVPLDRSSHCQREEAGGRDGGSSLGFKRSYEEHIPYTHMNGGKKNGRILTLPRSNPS

In order of rising IC50:
1. COc1cc(P(C)(C)=O)ccc1Nc1ncc(Cl)c(Nc2ccccc2OC)n1  55.2 nM
2. COc1cc(N2CCC(N(C)C)CC2)ccc1Nc1ncc(Cl)c(Nc2ccccc2P(C)(C)=O)n1  100 nM
3. COc1cc(N2CCC(N3CCOCC3)CC2)ccc1Nc1ncc(Cl)c(Nc2ccccc2P(C)(C)=O)n1  270 nM
4. COc1cc(N2CCCN(C)CC2)ccc1Nc1ncc(Cl)c(Nc2ccccc2P(C)(C)=O)n1  339 nM
5. COc1cc(N2CCOCC2)ccc1Nc1ncc(Cl)c(Nc2ccccc2P(C)(C)=O)n1  399 nM
6. COc1cc(-c2cnn(C3CCNCC3)c2)ccc1Nc1ncc(Cl)c(Nc2ccccc2P(C)(C)=O)n1  702 nM
